Laboratory results from patent US20230073777A1, “CYCLIC-AMP RESPONSE ELEMENT BINDING PROTEIN (CBP) AND/OR ADENOVIRAL E1A BINDING PROTEIN OF 300 KDA (P300) DEGRADATION COMPOUNDS AND METHODS OF USE” (CULLGEN (SHANGHAI), INC., priority 2019, published 2023).
Read-outs that look alike come from different tables or passages of the source.

Columns and labels:
LNCaP cells = assay: LNCaP cell viability assay (CellTiter-Glo); type: cell-based; details: Homo sapiens, 72 h, LNCaP prostate cancer cell viability inhibition, 3 days
In short: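 Three-day treatment of LNCaP cells (5000 per well) across a 12-point, 3-fold dilution series starting at 10 μM. ATP luminescence (CellTiter-Glo) relative to untreated controls gave dose-response curves fitted nonlinearly for IC50.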

P300 = P300 (Homo sapiens, UniProt Q09472); assay: Immunoblotting of P300 protein levels in LNCaP or 22RV1 cells; type: cell-based; parameters: LNCaP or 22RV1 cells that express CBP/P300 proteins were treated with GNE-781 or the bivalent compounds; endogenous in cells; host or cells: LNCaP (clone FGC) or 22RV1 cells; details: read-out: Degradation (10 nM)
In short: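 P300/CBP levels quantified by chemiluminescent immunoblot band densitometry, normalized against tubulin or vinculin loading controls. Lysates came from LNCaP or 22RV1 cells exposed to compounds or DMSO vehicle for indicated times.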

[1] = percentage of inhibition of p300 at 10 nM (Table 2)
[2] = percentage of inhibition of p300 at 10 nM (Table 3)

Chain of P300 (Q09472 whole entry): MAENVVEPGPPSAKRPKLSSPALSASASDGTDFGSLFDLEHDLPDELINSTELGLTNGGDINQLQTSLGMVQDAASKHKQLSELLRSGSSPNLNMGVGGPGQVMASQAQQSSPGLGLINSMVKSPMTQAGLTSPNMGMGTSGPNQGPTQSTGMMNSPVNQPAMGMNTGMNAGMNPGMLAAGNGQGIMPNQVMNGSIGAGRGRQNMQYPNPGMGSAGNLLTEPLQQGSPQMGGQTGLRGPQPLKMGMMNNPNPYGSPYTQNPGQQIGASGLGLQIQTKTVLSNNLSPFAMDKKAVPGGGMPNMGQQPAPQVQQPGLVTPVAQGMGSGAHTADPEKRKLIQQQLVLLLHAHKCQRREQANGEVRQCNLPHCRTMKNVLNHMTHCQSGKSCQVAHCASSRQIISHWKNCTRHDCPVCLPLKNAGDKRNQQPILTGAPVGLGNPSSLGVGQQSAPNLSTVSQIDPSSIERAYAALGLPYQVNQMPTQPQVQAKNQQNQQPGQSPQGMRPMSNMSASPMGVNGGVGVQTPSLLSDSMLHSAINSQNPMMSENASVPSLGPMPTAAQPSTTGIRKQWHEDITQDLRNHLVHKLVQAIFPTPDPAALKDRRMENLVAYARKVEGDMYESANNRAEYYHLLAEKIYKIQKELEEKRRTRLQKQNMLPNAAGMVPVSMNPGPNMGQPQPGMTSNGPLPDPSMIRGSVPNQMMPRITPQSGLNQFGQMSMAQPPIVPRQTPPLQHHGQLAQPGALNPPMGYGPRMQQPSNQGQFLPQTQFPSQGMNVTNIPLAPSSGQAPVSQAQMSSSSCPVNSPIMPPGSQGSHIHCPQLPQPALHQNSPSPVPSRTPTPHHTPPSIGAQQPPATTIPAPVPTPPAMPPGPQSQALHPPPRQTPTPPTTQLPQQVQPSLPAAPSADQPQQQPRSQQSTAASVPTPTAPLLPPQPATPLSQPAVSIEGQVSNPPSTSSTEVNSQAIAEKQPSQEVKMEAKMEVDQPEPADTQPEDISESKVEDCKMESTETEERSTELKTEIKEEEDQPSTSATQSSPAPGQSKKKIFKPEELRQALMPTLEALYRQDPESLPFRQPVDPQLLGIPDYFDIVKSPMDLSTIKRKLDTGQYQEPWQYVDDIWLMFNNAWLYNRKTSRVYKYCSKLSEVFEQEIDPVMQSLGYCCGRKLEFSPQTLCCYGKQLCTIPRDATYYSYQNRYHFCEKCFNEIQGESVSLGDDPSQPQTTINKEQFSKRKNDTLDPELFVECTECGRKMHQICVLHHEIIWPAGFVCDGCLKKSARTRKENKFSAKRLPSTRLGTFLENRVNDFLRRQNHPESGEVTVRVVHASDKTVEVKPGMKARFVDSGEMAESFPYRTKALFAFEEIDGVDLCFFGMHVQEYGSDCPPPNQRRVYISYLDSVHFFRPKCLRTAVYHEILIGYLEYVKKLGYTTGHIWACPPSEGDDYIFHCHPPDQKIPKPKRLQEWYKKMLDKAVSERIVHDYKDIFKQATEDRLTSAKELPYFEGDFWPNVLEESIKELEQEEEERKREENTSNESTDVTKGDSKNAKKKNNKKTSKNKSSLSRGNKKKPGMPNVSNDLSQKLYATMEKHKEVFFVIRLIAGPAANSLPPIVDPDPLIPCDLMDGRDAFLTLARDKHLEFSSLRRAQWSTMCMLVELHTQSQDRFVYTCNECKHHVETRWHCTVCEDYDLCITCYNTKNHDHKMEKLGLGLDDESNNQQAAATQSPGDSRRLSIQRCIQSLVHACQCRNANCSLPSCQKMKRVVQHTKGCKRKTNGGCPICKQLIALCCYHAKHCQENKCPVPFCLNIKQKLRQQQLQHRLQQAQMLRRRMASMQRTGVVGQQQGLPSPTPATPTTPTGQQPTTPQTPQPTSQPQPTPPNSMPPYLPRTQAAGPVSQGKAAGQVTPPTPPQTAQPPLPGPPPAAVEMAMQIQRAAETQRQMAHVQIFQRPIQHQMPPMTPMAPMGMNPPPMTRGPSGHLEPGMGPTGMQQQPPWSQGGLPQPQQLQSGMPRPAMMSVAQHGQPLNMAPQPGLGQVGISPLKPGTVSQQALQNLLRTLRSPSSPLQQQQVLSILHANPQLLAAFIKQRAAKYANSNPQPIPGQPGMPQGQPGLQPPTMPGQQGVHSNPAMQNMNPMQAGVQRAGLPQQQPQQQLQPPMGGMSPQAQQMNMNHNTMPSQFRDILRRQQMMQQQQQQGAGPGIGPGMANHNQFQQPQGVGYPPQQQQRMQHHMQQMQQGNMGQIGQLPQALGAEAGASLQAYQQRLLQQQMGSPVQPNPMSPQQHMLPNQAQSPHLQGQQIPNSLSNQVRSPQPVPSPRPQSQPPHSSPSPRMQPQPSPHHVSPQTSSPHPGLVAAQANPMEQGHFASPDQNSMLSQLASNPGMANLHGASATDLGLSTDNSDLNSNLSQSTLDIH

SMILES	IC50 (LNCaP cells; CellTiter-Glo (Table 2)) [nM]	inhibition at 0.01 µM (P300; [1]) [%]	IC50 (LNCaP cells; CellTiter-Glo (Table 3)) [nM]	inhibition at 0.01 µM (P300; [2]) [%]
CNC(=O)N1CCc2c(c(N3CCCc4cc(-c5cnn(C)c5)c(C(F)F)cc43)nn2C2CCN(C(=O)CCCCCCNc3cccc4c3C(=O)N(C3CCC(=O)NC3=O)C4=O)CC2)C1 (centres unmarked) [P-035, 3-(7-(difluoromethyl)-6-(1-methyl-1H-pyrazol-4-yl)-3,4-dihydroquinolin-1(2H)-yl)-1-(1-(7-((2-(2,6-dioxopiperidin-3-yl)-1,3-dioxoisoindolin-4-yl)amino)heptanoyl)piperidin-4-yl)-N-methyl-1,4,6,7-tetrahydro-5H-pyrazolo[4,3-c]pyridine-5-carboxamide]	0.7	> 80		
CNC(=O)N1CCc2c(c(N3CCCc4cc(-c5cnn(CC(=O)NCCNc6ccc7c(c6)C(=O)N(C6CCC(=O)NC6=O)C7=O)c5)c(C(F)F)cc43)nn2C2CCOCC2)C1 (centres unmarked) [P-016, 3-(7-(Difluoromethyl)-6-(1-(2-((2-((2-(2,6-dioxopiperidin-3-yl)-1,3-dioxoisoindolin-5-yl)amino)ethyl)amino)-2-oxoethyl)-1H-pyrazol-4-yl)-3,4-dihydroquinolin-1(2H)-yl)-N-methyl-1-(tetrahydro-2H-pyran-4-yl)-1,4,6,7-tetrahydro-5H-pyrazolo[4,3-c]pyridine-5-carboxamide]	3040	< 20		
CNC(=O)N1CCc2c(c(N3CCCc4cc(-c5cnn(C)c5)c(C(F)F)cc43)nn2C2CCN(CCCCCCCc3cccc4c3C(=O)N(C3CCC(=O)NC3=O)C4=O)CC2)C1 (centres unmarked) [P-097, 3-(7-(difluoromethyl)-6-(1-methyl-1H-pyrazol-4-yl)-3,4-dihydroquinolin-1(2H)-yl)-1-(1-(7-(2-(2,6-dioxopiperidin-3-yl)-1,3-dioxoisoindolin-4-yl)heptyl)piperidin-4-yl)-N-methyl-1,4,6,7-tetrahydro-5H-pyrazolo[4,3-c]pyridine-5-carboxamide]			49	> 80
CC(=O)N1CCc2c(c(N3CCCc4cc(-c5cnn(C)c5)c(C(F)F)cc43)nn2C2CCN(C(=O)CCCCNc3cccc4c3n(C)c(=O)n4C3CCC(=O)NC3=O)CC2)C1 (centres unmarked) [P-128, 3-(4-((5-(4-(5-Acetyl-3-(7-(difluoromethyl)-6-(1-methyl-1H-pyrazol-4-yl)-3,4-dihydroquinolin-1(2H)-yl)-4,5,6,7-tetrahydro-1H-pyrazolo[4,3-c]pyridin-1-yl)piperidin-1-yl)-5-oxopentyl)amino)-3-methyl-2-oxo-2,3-dihydro-1H-benzo[d]imidazol-1-yl)piperidine-2,6-dione]			244	20 to 50
CC(=O)N1CCc2c(c(N3CCCc4cc(-c5cnn(C)c5)c(C(F)F)cc43)nn2C2CCN(CC3CCN(CC#Cc4cccc5c4C(=O)N(C4CCC(=O)NC4=O)C5=O)CC3)CC2)C1 (centres unmarked) [P-150, 4-(3-(4-((4-(5-Acetyl-3-(7-(difluoromethyl)-6-(1-methyl-1H-pyrazol-4-yl)-3,4-dihydroquinolin-1(2H)-yl)-4,5,6,7-tetrahydro-1H-pyrazolo[4,3-c]pyridin-1-yl)piperidin-1-yl)methyl)piperidin-1-yl)prop-1-yn-1-yl)-2-(2,6-dioxopiperidin-3-yl)isoindoline-1,3-dione]			191	> 80
CC(=O)N1CCc2c(c(N3CCCc4cc(-c5cnn(C)c5)c(C(F)F)cc43)nn2C2CCN(C(=O)CN3CCOC(CNc4cccc5c4C(=O)N(C4CCC(=O)NC4=O)C5=O)C3)CC2)C1 (centres unmarked) [P-141, 4-(((4-(2-(4-(5-Acetyl-3-(7-(difluoromethyl)-6-(1-methyl-1H-pyrazol-4-yl)-3,4-dihydroquinolin-1(2H)-yl)-4,5,6,7-tetrahydro-1H-pyrazolo[4,3-c]pyridin-1-yl)piperidin-1-yl)-2-oxoethyl)morpholin-2-yl)methyl)amino)-2-(2,6-dioxopiperidin-3-yl)isoindoline-1,3-dione]			156	50 to 80

Continued, values first:

IC50 (LNCaP cells; CellTiter-Glo (Table 2)) [nM]	inhibition at 0.01 µM (P300; [1]) [%]	IC50 (LNCaP cells; CellTiter-Glo (Table 3)) [nM]	inhibition at 0.01 µM (P300; [2]) [%]	SMILES
		> 10000	< 20	CNC(=O)N1CCc2c(c(N3CCCc4cc(-c5cnn(CC(=O)NCCOCC(=O)N[C@H](C(=O)N6C[C@H](O)C[C@H]6C(=O)NCc6ccc(-c7scnc7C)cc6)C(C)(C)C)c5)c(C(F)F)cc43)nn2C2CCOCC2)C1 [P-073, 3-(7-(Difluoromethyl)-6-(1-(2-((2-(2-(((S)-1-((2S,4R)-4-hydroxy-2-((4-(4-methylthiazol-5-yl)benzyl)carbamoyl)pyrrolidin-1-yl)-3,3-dimethyl-1-oxobutan-2-yl)amino)-2-oxoethoxy)ethyl)amino)-2-oxoethyl)-1H-pyrazol-4-yl)-3,4-dihydroquinolin-1(2H)-yl)-N-methyl-1-(tetrahydro-2H-pyran-4-yl)-1,4,6,7-tetrahydro-5H-pyrazolo[4,3-c]pyridine-5-carboxamide]
7.1	> 80			CNC(=O)N1CCc2c(c(N3CCCc4cc(-c5cnn(C)c5)c(C(F)F)cc43)nn2C2CCN(C(=O)CCCCNc3ccc4c(c3)C(=O)N(C3CCC(=O)NC3=O)C4=O)CC2)C1 (centres unmarked) [P-004, 3-(7-(difluoromethyl)-6-(1-methyl-1H-pyrazol-4-yl)-3,4-dihydroquinolin-1(2H)-yl)-1-(1-(5-((2-(2,6-dioxopiperidin-3-yl)-1,3-dioxoisoindolin-5-yl)amino)pentanoyl)piperidin-4-yl)-N-methyl-1,4,6,7-tetrahydro-5H-pyrazolo[4,3-c]pyridine-5-carboxamide]
		75.6	< 20	CNC(=O)N1CCc2c(c(N3CCCc4cc(-c5cnn(C)c5)c(C(F)F)cc43)nn2C2CCN(C(=O)CCC(=O)N[C@H](C(=O)N3C[C@H](O)C[C@H]3C(=O)NCc3ccc(-c4scnc4C)cc3)C(C)(C)C)CC2)C1 [P-056, 3-(7-(Difluoromethyl)-6-(1-methyl-1H-pyrazol-4-yl)-3,4-dihydroquinolin-1(2H)-yl)-1-(1-(4-(((S)-1-((2S,4R)-4-hydroxy-2-((4-(4-methylthiazol-5-yl)benzyl)carbamoyl)pyrrolidin-1-yl)-3,3-dimethyl-1-oxobutan-2-yl)amino)-4-oxobutanoyl)piperidin-4-yl)-N-methyl-1,4,6,7-tetrahydro-5H-pyrazolo[4,3-c]pyridine-5-carboxamide]
9040	< 20			CNC(=O)N1CCc2c(c(N3CCCc4cc(-c5cnn(CC(=O)NCCCCC(=O)N[C@H](C(=O)N6C[C@H](O)C[C@H]6C(=O)NCc6ccc(-c7scnc7C)cc6)C(C)(C)C)c5)c(C(F)F)cc43)nn2C2CCOCC2)C1 [P-046, 3-(7-(Difluoromethyl)-6-(1-(2-((5-(((S)-1-((2S,4R)-4-hydroxy-2-((4-(4-methylthiazol-5-yl)benzyl)carbamoyl)pyrrolidin-1-yl)-3,3-dimethyl-1-oxobutan-2-yl)amino)-5-oxopentyl)amino)-2-oxoethyl)-1H-pyrazol-4-yl)-3,4-dihydroquinolin-1(2H)-yl)-N-methyl-1-(tetrahydro-2H-pyran-4-yl)-1,4,6,7-tetrahydro-5H-pyrazolo[4,3-c]pyridine-5-carboxamide]
		> 10000	< 20	CNC(=O)N1CCc2c(c(N3CCCc4cc(-c5cnn(CC(=O)NCCOCCOCCOCCC(=O)N[C@H](C(=O)N6C[C@H](O)C[C@H]6C(=O)NCc6ccc(-c7scnc7C)cc6)C(C)(C)C)c5)c(C(F)F)cc43)nn2C2CCOCC2)C1 [P-077, 3-(7-(Difluoromethyl)-6-(1-((S)-17-((2S,4R)-4-hydroxy-2-((4-(4-methylthiazol-5-yl)benzyl)carbamoyl)pyrrolidine-1-carbonyl)-18,18-dimethyl-2,15-dioxo-6,9,12-trioxa-3,16-diazanonadecyl)-1H-pyrazol-4-yl)-3,4-dihydroquinolin-1(2H)-yl)-N-methyl-1-(tetrahydro-2H-pyran-4-yl)-1,4,6,7-tetrahydro-5H-pyrazolo[4,3-c]pyridine-5-carboxamide]
		31.9	< 20	CNC(=O)N1CCc2c(c(N3CCCc4cc(-c5cnn(C)c5)c(C(F)F)cc43)nn2C2CCN(C(=O)CCOCCOCCOCCOCCC(=O)N[C@H](C(=O)N3C[C@H](O)C[C@H]3C(=O)NCc3ccc(-c4scnc4C)cc3)C(C)(C)C)CC2)C1 [P-070, 3-(7-(Difluoromethyl)-6-(1-methyl-1H-pyrazol-4-yl)-3,4-dihydroquinolin-1(2H)-yl)-1-(1-((S)-18-((2S,4R)-4-hydroxy-2-((4-(4-methylthiazol-5-yl)benzyl)carbamoyl)pyrrolidine-1-carbonyl)-19,19-dimethyl-16-oxo-4,7,10,13-tetraoxa-17-azaicosanoyl)piperidin-4-yl)-N-methyl-1,4,6,7-tetrahydro-5H-pyrazolo[4,3-c]pyridine-5-carboxamide]
		67.8	< 20	CNC(=O)N1CCc2c(c(N3CCCc4cc(-c5cnn(C)c5)c(C(F)F)cc43)nn2C2CCN(C(=O)CCCCC(=O)N[C@H](C(=O)N3C[C@H](O)C[C@H]3C(=O)NCc3ccc(-c4scnc4C)cc3)C(C)(C)C)CC2)C1 [P-058, 3-(7-(Difluoromethyl)-6-(1-methyl-1H-pyrazol-4-yl)-3,4-dihydroquinolin-1(2H)-yl)-1-(1-(6-(((S)-1-((2S,4R)-4-hydroxy-2-((4-(4-methylthiazol-5-yl)benzyl)carbamoyl)pyrrolidin-1-yl)-3,3-dimethyl-1-oxobutan-2-yl)amino)-6-oxohexanoyl)piperidin-4-yl)-N-methyl-1,4,6,7-tetrahydro-5H-pyrazolo[4,3-c]pyridine-5-carboxamide]
